Experimental data reported in patent publication US4205952A, “Specific binding assay method and reagent means” (Technion Research & Development Foundation Ltd., priority 1976, dated 1980).

Key:
[1] = system: Anti-BSA antiserum; assay: Interaction of cobalt-labelled BSA conjugate with anti-BSA antibodies, supernatant Co by AAS; type: binding
Description: (1) Anti-BSA antiserum (100 μl) was added to each of four tubes numbered 1 to 4. The same volume (100 μl) of 0.01 M phosphate buffer was added to each of additional four tubes, numbered 5 to 8.
(2) A fixed volume (100 μl) of four dilutions of BSA-Cobalt labelled conjugate, containing 0.23, 0.47, 0.94 and 1.88 μg Co/ml (or 0.8, 1.6, 3.1 and 6.2 μg BSA conjugate/100 μl of sample) added to the tubes 1 to 4 respectively and similarly to tubes 5 to 8 respectively.
(3) The solutions were mixed on a Vortex, allowed to incubate for 1 hr. at 37° C. and then for 48 hrs. at 4° C.
(4) The tubes were then centrifuged for 30 min. at 4° C.
(5) The supernatant was analyzed for Co by atomic absorption.
The readings obtained from tubes 5 through 8 served as calibrating controls. The readings from tubes 1 through 4 then indicated the amount of free cobalt-labelled BSA left in solution (by difference the "bound" BSA antigen could be determined). The atomic absorption measurements were interpolated into the calibration curve and gave 0.00, 0.06, 0.59 and 1.25 μg Co/ml of "free" hapten, equivalent to a concentration of 0,0.2,2.0 and 4.3 μg BSA conjugate/100 μl of original sample in tubes 1,2,3 and 4 respectively.

[2] = system: sepharose-bound anti-E2 (HS)-COOH antibodies; assay: Inhibition and cross-reaction experiments with E2(HS)-CONH-CH2-Fc; type: binding, rabbit
Description: A fixed volume (30 μl) of a solution of iron-labelled estradiol hemisuccinate, E2 (HS)-CONH-CH2 Fc, of suitable concentration (selected from the results obtained in Step (ii) above) was mixed with a constant volume (30 μl) of solutions of various concentrations of unlabelled hapten, estradiol hemisuccinate (or estrone-17-(0-Carboxymethyl)oxime, E1 (Ox)-COOH). This mixture was added to a constant volume (60 μl) of the sepharose-bound antibodies, Vortex-mixed for 1 min. and allowed to incubate at room temperature for 30 min. The Vortex-mixing was repeated at intervals of 10 min. The assay mixture was then centrifuged for 1 min. at 3000 r.p.m. Aliquots (30 μl) were extracted with an Eppendorf pipette and injected into the graphite tube of the AA instrument. The following controls were taken through the same procedure to determine specificity: (a) a suspension of sepharose-bound antibodies without addition of metal-labelled hapten; (b) the mixtures of metal-labelled and non-labelled haptens, without addition of the sepharose-bound antibodies; (c) the mixture of metal-labelled and non-labelled haptens with addition of sepharose-bound γ-globulins of normal rabbit serum.

In the case of “BSA-Cobalt labelled conjugate: Bovine serum albumin labelled with carboxycobalticenium N-succinimide ester, about 35 haptens per mole”, the “"free" hapten in supernatant” value ([1]; tube 1: conjugate 0.23 μg Co/ml, 100 μl + 100 μl antiserum, 1 hr 37° C., 48 hrs 4° C.) was 0.00 μg Co/ml, the “"free" hapten in supernatant” value ([1]; tube 2: conjugate 0.47 μg Co/ml) was 0.06 μg Co/ml and the “"free" hapten in supernatant” value ([1]; tube 3: conjugate 0.94 μg Co/ml) was 0.59 μg Co/ml. The “free conjugate, equivalent concentration” value ([1]; tube 4: 6.2 μg BSA conjugate/100 μl added) was 4.3 μg BSA conjugate/100 μl of original sample and the “"free" hapten in supernatant” value ([1]; tube 4: conjugate 1.88 μg Co/ml) was 1.25 μg Co/ml.
In the case of C[C@]12CC[C@@H]3c4ccc(O)cc4CC[C@H]3[C@@H]1CCC2=NOCC(=O)O [E1 (OX)--COOH, Extrone oxime-0-carboxymethyl], the “Inhibition of E2 (HS)--CONH--CH2 Fc (27.5 × 10^-7 M), cross-reaction” value (from here on “Inhibition of E2 … cross-reaction”) ([2]; unlabelled hapten 3.75 × 10^-7 M) was 0.5%, the “Inhibition of E2 … cross-reaction” value ([2]; unlabelled hapten 7.5 × 10^-7 M) was 3.0% and the “Inhibition of E2 … cross-reaction” value ([2]; unlabelled hapten 15.0 × 10^-7 M (E1 column)) was 6.5%. The “Inhibition of E2 … cross-reaction” value ([2]; unlabelled hapten 37.5 × 10^-7 M) was 9.5%, the “Inhibition of E2 … cross-reaction” value ([2]; unlabelled hapten 75.0 × 10^-7 M) was 25.5% and the “Inhibition of E2 … cross-reaction” value ([2]; unlabelled hapten 150.0 × 10^-7 M (E1 column)) was 50.5%.
C[C@]12CC[C@@H]3c4ccc(O)cc4CC[C@H]3[C@@H]1CC[C@@H]2OC(=O)CCC(=O)O [E2 (HS)--COOH, Estradiol-17β-hemisuccinate] was tested, and the “Inhibition of E2 (HS)--CONH--CH2 Fc (27.5 × 10^-7 M)” value ([2]; unlabelled hapten 3.6 × 10^-7 M) was 8.5%, the “Inhibition of E2 (HS)--CONH--CH2 Fc (27.5 × 10^-7 M)” value ([2]; unlabelled hapten 7.2 × 10^-7 M) was 17.5% and the “Inhibition of E2 (HS)--CONH--CH2 Fc (27.5 × 10^-7 M)” value ([2]; unlabelled hapten 15.0 × 10^-7 M (E2 column)) was 21.5%. The “Inhibition of E2 (HS)--CONH--CH2 Fc (27.5 × 10^-7 M)” value ([2]; unlabelled hapten 36.0 × 10^-7 M) was 43.5%, the “Inhibition of E2 (HS)--CONH--CH2 Fc (27.5 × 10^-7 M)” value ([2]; unlabelled hapten 72.0 × 10^-7 M) was 48.0% and the “Inhibition of E2 (HS)--CONH--CH2 Fc (27.5 × 10^-7 M)” value ([2]; unlabelled hapten 150.0 × 10^-7 M (E2 column)) was 56.0%. The “Inhibition of E2 (HS)--CONH--CH2 Fc (27.5 × 10^-7 M)” value ([2]; unlabelled hapten 300.0 × 10^-7 M) was 63.5%.
